# Assays:
# SK-HEP-1 = assay: Cytotoxic activity (M) panel, Liver SK-HEP-1; conditions: Homo sapiens, SK-HEP1, read-out: CYTOTOXIC ACTIVITY (M) SK-HEP-1
# FADU = assay: Cytotoxic activity (M) panel, Pharnynx FADU; conditions: Homo sapiens, read-out: CYTOTOXIC ACTIVITY (M) FADU
# DU-145 = assay: Cytotoxic activity (M) panel, Prostate DU-145; conditions: Homo sapiens, DU-145, read-out: CYTOTOXIC ACTIVITY (M) DU-145
# HT-29 = assay: Cytotoxic activity (M) panel, Colon HT-29; conditions: Homo sapiens, HT-29, read-out: CYTOTOXIC ACTIVITY (M) HT-29
# SK-OV-3 = assay: Cytotoxic activity (M) panel, Ovary SK-OV-3; conditions: Homo sapiens, SK-OV-3, read-out: CYTOTOXIC ACTIVITY (M) SK-OV-3
# MEL-28 = assay: Cytotoxic activity (M) panel, Melanoma Mel-28; conditions: Homo sapiens, SK-MEL-28, read-out: CYTOTOXIC ACTIVITY (M) Mel-28
# Hs746t = assay: Cytotoxic activity (M) panel, Gastric Hs746t; conditions: Homo sapiens, read-out: CYTOTOXIC ACTIVITY (M) Hs746t
# PC3 = assay: Cytotoxic activity (M) panel, Prostate PC3; conditions: Homo sapiens, PC-3, read-out: CYTOTOXIC ACTIVITY (M) PC3
# NCI-H187 = assay: Cytotoxic activity (M) panel, SCL NCI-H187; conditions: Homo sapiens, NCI-H187, read-out: CYTOTOXIC ACTIVITY (M) NCI-H187
# Y-79 = assay: Cytotoxic activity (M) panel, Retinoblastoma Y-79; conditions: Homo sapiens, Y79, read-out: CYTOTOXIC ACTIVITY (M) Y-79
# LNCAP = assay: Cytotoxic activity (M) panel, Prostate LNCAP; conditions: Homo sapiens, read-out: CYTOTOXIC ACTIVITY (M) LNCAP
# OSA-FH = assay: Cytotoxic activity (M) panel, Osteosarcoma OSA-FH; conditions: read-out: CYTOTOXIC ACTIVITY (M) OSA-FH
# PANC-1 = assay: Cytotoxic activity (M) panel, Pancreas PANC-1; conditions: Homo sapiens, PANC-1, read-out: CYTOTOXIC ACTIVITY (M) PANC-1
# A549 = assay: Cytotoxic activity (M) panel, NSCL A549; conditions: Homo sapiens, A549, read-out: CYTOTOXIC ACTIVITY (M) A549
# 5637 = assay: Cytotoxic activity (M) panel, Bladder 5637; conditions: read-out: CYTOTOXIC ACTIVITY (M) 5637
# 786-O = assay: Cytotoxic activity (M) panel, Renal 786-O; conditions: Homo sapiens, 786-0, read-out: CYTOTOXIC ACTIVITY (M) 786-O
# CHSA = assay: Cytotoxic activity (M) panel, Chondrosarcoma CHSA; conditions: read-out: CYTOTOXIC ACTIVITY (M) CHSA
# MC116 = assay: Cytotoxic activity (M) panel, Lymphoma undifferentiated MC116; conditions: Homo sapiens, MC116, read-out: CYTOTOXIC ACTIVITY (M) MC116, leukemias & lymphomas, Lymphoma undifferentiated, line MC116
# U-937 = assay: Cytotoxic activity (M) panel, Lymphoma Histiocytic U-937; conditions: Homo sapiens, U-937, read-out: CYTOTOXIC ACTIVITY (M) U-937
# Molt 3 = assay: Cytotoxic activity (M) panel, Acute lymphoblastic Molt 3; conditions: Homo sapiens, MOLT-3, read-out: CYTOTOXIC ACTIVITY (M) Molt 3, leukemias & lymphomas, ALL Acute lymphoblastic, line Molt 3
# Hut 78 = assay: Cytotoxic activity (M) panel, Lymphoma Cutaneus T cell Hut 78; conditions: Homo sapiens, HuT78, read-out: CYTOTOXIC ACTIVITY (M) Hut 78, leukemias & lymphomas, Lymphoma Cutaneus T cell, line Hut 78
# RAMOS = assay: cells; conditions: Homo sapiens, read-out: CYTOTOXIC ACTIVITY (M) RAMOS, leukemias & lymphomas, Lymphoma Burkitts B celll, line RAMOS
# H9 = assay: cells; conditions: Homo sapiens, H9, read-out: CYTOTOXIC ACTIVITY (M) H9, leukemias & lymphomas, Lymphoma T-cell, line H9
# HL60 = assay: cells; conditions: Homo sapiens, HL-60, read-out: CYTOTOXIC ACTIVITY (M) HL60, leukemias & lymphomas, ALL Promyelocytic leukemia, line HL60
# K562 = assay: cells; conditions: Homo sapiens, K562, read-out: CYTOTOXIC ACTIVITY (M) K562
# MX-1 = assay: Cytotoxic activity (M) panel, Breast MX-1; conditions: Homo sapiens, MX1, read-out: CYTOTOXIC ACTIVITY (M) MX-1
Structure (SMILES),IC50 (SK-HEP-1),IC50 (FADU),IC50 (MEL-28),IC50 (Hs746t),IC50 (OSA-FH),IC50 (PANC-1),IC50 5637,IC50 (786-O),IC50 (CHSA),IC50 (MC116),IC50 (U-937),IC50 (Molt 3),IC50 (Hut 78),IC50 (RAMOS),IC50 (H9),IC50 (HL60),IC50 (K562),other results
COc1c(C)cc2c(c1O)[C@@H]1C3Cc4c(OC(C)=O)c(C)c5c(c4[C@H](CNC(=O)[C@H](C)NC(=O)C(F)(F)F)N3[C@@H](O)[C@H](C2)N1C)OCO5 (some centres unmarked) [drawing 212],6.01e-11 M,1.58e-09 M,3.17e-09 M,2.18e-09 M,1.39e-09 M,4.17e-09 M,3.42e-10 M,1.59e-09 M,6.77e-09 M,,,,,,,,,IC50 (DU-145): 1.83e-07 M; IC50 (HT-29): 1.97e-08 M; IC50 (SK-OV-3): 1.02e-07 M; IC50 (PC3): 2.15e-09 M; IC50 (NCI-H187): 9.57e-10 M; IC50 (Y-79): 7.36e-10 M; IC50 (LNCAP): 2.17e-10 M; IC50 (A549): 7.68e-06 M
COc1c(C)cc2c(c1O)[C@@H]1C3Cc4c(OC(C)=O)c(C)c5c(c4[C@H](CNC(=O)[C@H](C)NC(=O)CCc4ccccc4)N3[C@@H](O)[C@H](C2)N1C)OCO5 (some centres unmarked) [drawing 215],1.4e-09 M,8.41e-10 M,1.08e-09 M,9.35e-10 M,8.84e-10 M,8.93e-10 M,1.65e-10 M,7.88e-10 M,1.08e-09 M,,,,,,,,,IC50 (HT-29): 7.43e-10 M; IC50 (PC3): 8.13e-10 M
COc1c(C)cc2c(c1O)[C@@H]1C3Cc4c(OC(C)=O)c(C)c5c(c4[C@H](CNC(=O)/C=C/c4cccc(C(F)(F)F)c4)N3[C@@H](O)[C@H](C2)N1C)OCO5 (some centres unmarked) [drawing 218],,,,,,,,,,2.15e-10 M,1.77e-10 M,6.13e-10 M,5.5e-11 M,,,,,
COc1c(C)cc2c(c1O)[C@@H]1C3Cc4c(OC(C)=O)c(C)c5c(c4[C@H](CNC(=O)[C@H](C)NC(=O)C(F)(F)F)N3[C@@H](O)[C@H](C2)N1C)OCO5 (some centres unmarked) [drawing 219],,,,,,,,,,2.65e-10 M,5.27e-11 M,2.8e-09 M,2.57e-10 M,,,,,
COc1c(C)cc2c(c1O)[C@@H]1C3Cc4c(OC(C)=O)c(C)c5c(c4[C@H](CNC(=O)/C=C/c4ccccc4)N3[C@@H](O)[C@H](C2)N1C)OCO5 (some centres unmarked) [drawing 220],,,,,,,,,,3.8e-09 M,3.28e-11 M,5.66e-10 M,4.62e-09 M,,,,,
COc1c(C)cc2c(c1O)[C@@H]1C3Cc4c(OC(C)=O)c(C)c5c(c4[C@H](CNC(=O)[C@H](C)NC(=O)CCc4ccccc4)N3[C@@H](O)[C@H](C2)N1C)OCO5 (some centres unmarked) [drawing 222],,,,,,,,,,,5.15e-10 M,7.53e-12 M,9.9e-10 M,5.26e-11 to 1.1e-10 M,4.48e-09 M,5.92e-09 M,1.09e-08 M,
COc1c(C)cc2c(c1O)[C@@H]1C3Cc4c(OC(C)=O)c(C)c5c(c4[C@H](CNC(=O)[C@H](C)NC(=O)Cc4ccccc4)N3[C@@H](O)[C@H](C2)N1C)OCO5 (some centres unmarked) [drawing 223],,,,,,,,,,1.41e-09 M,,8.85e-10 M,1.06e-08 M,8.85e-10 M,1.14e-08 M,1.23e-10 M,4.45e-08 M,
COc1c(C)cc2c(c1O)[C@@H]1C3Cc4c(OC(C)=O)c(C)c5c(c4[C@H](CNC(=O)Cc4ccccc4)N3[C@@H](O)[C@H](C2)N1C)OCO5 (some centres unmarked) [drawing 224],,,,,,,,,,1.13e-08 M,,2.54e-09 M,7.46e-09 M,7.15e-09 M,,3.97e-10 M,,
CCCCCC(=O)NC[C@H]1c2c(c(OC(C)=O)c(C)c3c2OCO3)CC2[C@H]3c4c(cc(C)c(OC)c4O)C[C@@H]([C@H](O)N21)N3C (some centres unmarked) [drawing 226],1.08e-09 M,1.39e-08 M,1.15e-09 M,9.19e-09 M,1.3e-09 M,1e-09 M,2.84e-10 M,1.72e-09 M,2.1e-09 M,,,,,,,,,IC50 (HT-29): 8.97e-09 M; IC50 (PC3): 9.32e-10 M; IC50 (A549): 9.41e-09 M
CCC(=O)NC[C@H]1c2c(c(OC(C)=O)c(C)c3c2OCO3)CC2[C@H]3c4c(cc(C)c(OC)c4O)C[C@@H]([C@H](O)N21)N3C (some centres unmarked) [drawing 227],1.17e-09 M,3.05e-08 M,2.85e-09 M,1.36e-09 M,4.37e-09 M,1.37e-09 M,9.91e-10 M,2.27e-09 M,1.63e-09 M,,,,,,,,,IC50 (SK-OV-3): 2.9e-08 M; IC50 (NCI-H187): 2.41e-11 M; IC50 (Y-79): 3.08e-10 M; IC50 (LNCAP): 2.38e-08 M
CCC(=O)N[C@@H](C)C(=O)NC[C@H]1c2c(c(OC(C)=O)c(C)c3c2OCO3)CC2[C@H]3c4c(cc(C)c(OC)c4O)C[C@@H]([C@H](O)N21)N3C (some centres unmarked) [drawing 228],6.21e-09 M,4.38e-08 M,1.42e-08 M,8.15e-09 M,1.15e-08 M,8.61e-09 M,1.17e-09 M,1.54e-08 M,2.91e-08 M,,,,,,,,,IC50 (NCI-H187): 9.89e-11 M; IC50 (Y-79): 7.45e-10 M; IC50 (LNCAP): 1.77e-08 M; IC50 (MX-1): 1.92e-09 M
CCCC(=O)NC[C@H]1c2c(c(OC(C)=O)c(C)c3c2OCO3)CC2[C@H]3c4c(cc(C)c(OC)c4O)C[C@@H]([C@H](O)N21)N3C (some centres unmarked) [drawing 229],,,,,,,,,,1.62e-08 M,1.92e-09 M,1.62e-09 M,7.33e-09 M,,,,,
CCCCCC(=O)NC[C@H]1c2c(c(OC(C)=O)c(C)c3c2OCO3)CC2[C@H]3c4c(cc(C)c(OC)c4O)C[C@@H]([C@H](O)N21)N3C (some centres unmarked) [drawing 230],,,,,,,,,,3.81e-09 M,1.08e-09 M,3.87e-09 M,1.97e-09 M,1.1e-09 M,1.08e-08 M,1.5e-08 M,6.89e-08 M,
CCC(=O)NC[C@H]1c2c(c(OC(C)=O)c(C)c3c2OCO3)CC2[C@H]3c4c(cc(C)c(OC)c4O)C[C@@H]([C@H](O)N21)N3C (some centres unmarked) [drawing 231],,,,,,,,,,1.04e-09 M,,9.86e-10 M,,,1.2e-08 M,4.93e-10 M,1.87e-08 M,
COc1c(C)cc2c(c1O)[C@@H]1C3Cc4c(OC(C)=O)c(C)c5c(c4[C@H](COC(=O)/C=C/c4cccc(C(F)(F)F)c4)N3[C@@H](O)[C@H](C2)N1C)OCO5 (some centres unmarked) [drawing 237],,,,,,,,,,1.69e-08 M,7.6e-08 M,1.44e-08 M,6.47e-08 M,8.86e-09 M,1.56e-07 M,,1.56e-07 M,
CCCC(=O)OC[C@H]1c2c(c(OC(C)=O)c(C)c3c2OCO3)CC2[C@H]3c4c(cc(C)c(OC)c4O)C[C@@H]([C@H](O)N21)N3C (some centres unmarked) [drawing 240],,,,,,,,,,1.51e-08 M,1.03e-08 M,4.63e-08 M,2.06e-08 M,9.09e-09 M,6.76e-08 M,,2.11e-08 M,

# From patent US8012975B2, “Antitumoral analogs of ET-743” (Pharma Mar, S.A., priority 2000, dated 2011)
